In patent US10316070B2, “Dual protected pro-coelenterazine substrates” (PROMEGA CORPORATION, priority 2016, dated 2019):

Legend:
[1] = tested on: thermal stable β-glucosidase; test: Glucosidase assay: light output of furimazine mono- or bis-glucoside pro-substrate with Nanoluc, with and without β-glucosidase; format: biochemical; conditions: for Background RLU: without β-glucosidase, Nanoluc; for Signal to Background: β-glucosidase vs no β-glucosidase
Protocol: To the solution of 50 μl of furimazine mono- or bis-glucoside compound (100 μM) in NanoGlo buffer and 50 μl of NanoGlo buffer containing 1 ng/mL Nanoluc was added 11 μl of thermal stable β-glucosidase (Sigma) in PBS with final concentration of 1 Unit/ml/μM, and the light output was measured over time. The background of pro-substrate was measured under same condition without β-glucosidase.
(§1) The synthesized coelenterazine analogues (compounds of formula (I)) were evaluated for their background and signal/background ratio.

alkaline phosphatase = test: Alkaline phosphatase assay: light output of furimazine mono- or bis-phosphate pro-substrate with Nanoluc, with and without alkaline phosphatase; format: biochemical; conditions: for Signal to Background: alkaline phosphatase vs none; for Background RLU: without alkaline phosphatase, Nanoluc
Protocol: Alkaline phosphatase assays. To the solution of 50 μl furimazine mono- or bis-phosphate compound (50 μM) and 50 μL of NanoGlo buffer containing 1 ng/mL Nanoluc was added, then alkaline phosphatase (Sigma) in PBS with final concentration at 1 Unit/ml/μM was added, and the light output was measured over time. The background of pro-substrate was measured under same condition without adding alkaline phasphotase.
as §1

OCC1OC(Oc2ccc(COc3c(Cc4ccco4)nc4c(Cc5ccccc5)nc(-c5ccccc5)cn34)cc2)C(O)C(O)C1O [WZ-0246, β-D-glucose Benzyl Furimazine]
Background RLU ([1]; Time 0 hr): 10,028 RLU
Signal to Background ([1]; Time 0 hr): 3,235
Background RLU ([1]; Time 0.1 hr): 10,884 RLU
Signal to Background ([1]; Time 0.1 hr): 2,915
Background RLU ([1]; Time 0.25 hr): 12,298 RLU
Signal to Background ([1]; Time 0.25 hr): 2,426
Background RLU ([1]; Time 0.5 hr): 13,047 RLU
Signal to Background ([1]; Time 0.5 hr): 2,193
Background RLU ([1]; Time 1 hr): 18,529 RLU
Signal to Background ([1]; Time 1 hr): 1,172
Background RLU ([1]; Time 1.5 hr): 20,751 RLU
Signal to Background ([1]; Time 1.5 hr): 926
Background RLU ([1]; Time 2 hr): 24,489 RLU
Signal to Background ([1]; Time 2 hr): 627
Background RLU ([1]; Time 3 hr): 29,692 RLU
Signal to Background ([1]; Time 3 hr): 385
Background RLU ([1]; Time 4 hr): 33,514 RLU
Signal to Background ([1]; Time 4 hr): 264
Background RLU ([1]; Time 5 hr): 37,181 RLU
Signal to Background ([1]; Time 5 hr): 210
Background RLU ([1]; Time 6 hr): 40,543 RLU
Signal to Background ([1]; Time 6 hr): 157
Background RLU ([1]; Time 16 hr): 23,092 RLU
Signal to Background ([1]; Time 16 hr): 36

O=P(O)(O)Oc1ccc(COc2c(Cc3ccco3)nc3c(Cc4ccccc4)nc(-c4ccccc4)cn23)cc1 [WZ-0263, Furimazine Benzyl Phosphate]
Signal to Background (alkaline phosphatase; Time 5 min): 203
Background RLU (alkaline phosphatase; Time 5 min): 32,464 RLU
Signal to Background (alkaline phosphatase; Time 11 min): 232
Background RLU (alkaline phosphatase; Time 11 min): 36,745 RLU
Signal to Background (alkaline phosphatase; Time 21 min): 236
Background RLU (alkaline phosphatase; Time 21 min): 42,522 RLU
Signal to Background (alkaline phosphatase; Time 31 min): 245
Background RLU (alkaline phosphatase; Time 31 min): 48,399 RLU
Signal to Background (alkaline phosphatase; Time 42 min): 244
Background RLU (alkaline phosphatase; Time 42 min): 54,309 RLU
Signal to Background (alkaline phosphatase; Time 62 min): 230
Background RLU (alkaline phosphatase; Time 62 min): 65,661 RLU
Signal to Background (alkaline phosphatase; Time 93 min): 200
Background RLU (alkaline phosphatase; Time 93 min): 80,929 RLU
Signal to Background (alkaline phosphatase; Time 123 min): 170
Background RLU (alkaline phosphatase; Time 123 min): 94,825 RLU

O=P(O)(O)Oc1ccc(COc2c(Cc3ccco3)nc3c(Cc4ccccc4)nc(-c4cccc(OP(=O)(O)O)c4)cn23)cc1 [WZ-0291, Furimazine Bis-Phosphate]
Signal to Background (alkaline phosphatase; Time 5 min): 18,907
Background RLU (alkaline phosphatase; Time 5 min): 713 RLU
Signal to Background (alkaline phosphatase; Time 11 min): 18,699
Background RLU (alkaline phosphatase; Time 11 min): 739 RLU
Signal to Background (alkaline phosphatase; Time 21 min): 19,076
Background RLU (alkaline phosphatase; Time 21 min): 723 RLU
Signal to Background (alkaline phosphatase; Time 31 min): 18,846
Background RLU (alkaline phosphatase; Time 31 min): 723 RLU
Signal to Background (alkaline phosphatase; Time 42 min): 18,568
Background RLU (alkaline phosphatase; Time 42 min): 722 RLU
Signal to Background (alkaline phosphatase; Time 62 min): 18,861
Background RLU (alkaline phosphatase; Time 62 min): 678 RLU
Signal to Background (alkaline phosphatase; Time 93 min): 17,014
Background RLU (alkaline phosphatase; Time 93 min): 680 RLU
Signal to Background (alkaline phosphatase; Time 123 min): 14,664
Background RLU (alkaline phosphatase; Time 123 min): 704 RLU
background (in words) (alkaline phosphatase; compared to mono-protected analogue WZ-0263): low
signal-to-background ratio (in words) (alkaline phosphatase; compared to mono-protected analogues WZ-0263 and WZ-0265): significantly higher

OCC1OC(Oc2ccc(COc3c(Cc4ccco4)nc4c(Cc5ccccc5)nc(-c5ccc(OC6OC(CO)C(O)C(O)C6O)cc5)cn34)cc2)C(O)C(O)C1O [WZ-0262, bis-(β-D-glucose) Benzyl Furimazine]
background signal (in words) ([1]; FIG. 1, Tables 1 and 2): close to instrument noise
Background RLU ([1]; Time 0 hr): 87 RLU
Signal to Background ([1]; Time 0 hr): 340,753
Background RLU ([1]; Time 0.1 hr): 39 RLU
Signal to Background ([1]; Time 0.1 hr): 134,646
Background RLU ([1]; Time 0.25 hr): 32 RLU
Signal to Background ([1]; Time 0.25 hr): 73,734
Background RLU ([1]; Time 0.5 hr): 21 RLU
Signal to Background ([1]; Time 0.5 hr): 58,191
Background RLU ([1]; Time 1 hr): 26 RLU
Signal to Background ([1]; Time 1 hr): 21,501
Background RLU ([1]; Time 1.5 hr): 26 RLU
Signal to Background ([1]; Time 1.5 hr): 12,822
Background RLU ([1]; Time 2 hr): 20 RLU
Signal to Background ([1]; Time 2 hr): 11,569
Background RLU ([1]; Time 3 hr): 14 RLU
Signal to Background ([1]; Time 3 hr): 11,041
Background RLU ([1]; Time 4 hr): 25 RLU
Signal to Background ([1]; Time 4 hr): 5,297
Background RLU ([1]; Time 5 hr): 26 RLU
Signal to Background ([1]; Time 5 hr): 4,585
Background RLU ([1]; Time 6 hr): 22 RLU
Signal to Background ([1]; Time 6 hr): 5,060
Background RLU ([1]; Time 16 hr): 26 RLU
Signal to Background ([1]; Time 16 hr): 2708
signal-to-background ratio, fold higher than the corresponding mono-protected analogue ([1]; at the initial time point): ~100 fold
signal-to-background ratio (in words) ([1]; compared to mono-protected analogues WZ-0261 and WZ-0246): significantly higher
background, fold lower than the corresponding mono-protected analogue WZ-0246 ([1]; vs WZ-0246): ~200 fold
